Measurements: US8337792B2, “Aromatic imine compounds for use as sulfide scavengers” (priority 2007, dated 2012)

What was measured:
[1] = Comparison with conventional treatments against H2S dissolved in water (Table 2); details: 1,000 ppm H2S in water; for Lead acetate paper test, Head space / Lead acetate paper test, Liquid: paper colour
From the text: (§1) An overall comparison of the features of the present aromatic imine compounds and conventional compositions is shown in Table 3.

[2] = Solubility in water, oil, fuel and solvents; assay type: physicochemical
[3] = Comparison of features, performance and handling (Table 3)
From the text: as §1

[4] = Comparison of features, safety and hazard (Table 3)
From the text: as §1

| Structure (SMILES) | Residual H2S, I2 Titration [1] [ppm] | Residual H2S, Outside Lab [1] [ppm] | Lead acetate paper test, Head space [1] | Lead acetate paper test, Liquid [1] | Oil Solubility [2] | Deodorizes [3] | Stable [3] | Strong bonding to H2S [3] | Reactivity* ([3]; 1 is highest) | Reactive at ambient temperature ([3]; ambient temperature) | Carcinogenicity [4] | Mutagenicity [4] | RCRA Hazardous Waste [4] | Safe to use [4] | Sensitizing chemical [4] | Toxicity [4] | Formaldehyde ([4]; formaldehyde in the product) [ppm] |
| --- | --- | --- | --- | --- | --- | --- | --- | --- | --- | --- | --- | --- | --- | --- | --- | --- | --- |
| O=CC=O [Glyoxal] | 350 | 240 | brown/ | yellow/ | no | no | no | no | 1 | yes | yes | yes | yes | some | yes | no | 100 |
| OCCN1CN(CCO)CN(CCO)C1 [Triazine] | 660 | 728 | yellow/ | brown | – | – | – | – | – | – | – | – | – | – | – | – | – |
